According to article PMC4351868 (Cancer chemotherapy and pharmacology, 2012):
Like-named read-outs stand apart in the source and are kept apart here.

Assays:
[1] = format: in vivo, human; conditions: for Serum concentration / Tumor concentration / concentration at 12 h: approximately 12 hours after 8th AEE788 (250 mg) dose; for concentration at 12 h: serum, Serum concentration
[2] = human, in vivo
[3] = Serum pharmacokinetics of AEE788 and its metabolite AQM674
[4] = Safety assessment: adverse events; format: in vivo
recurrent glioblastoma [5] = test: Efficacy: tumor response; format: in vivo, human; conditions: for Median PFS: dose expansion phase
recurrent glioblastoma [6] = test: FLT-PET and DCE-/DSC-/DWI-MRI pharmacodynamic imaging; format: in vivo, human
[7] = temsirolimus combined with sorafenib; 9 of 19 patients; cited from earlier work
recurrent glioblastoma [8] = conditions: glioblastoma patients; erlotinib in combination with temsirolimus; cited from earlier work

C[C@@H](Nc1ncnc2[nH]c(-c3ccc(CN4CCNCC4)cc3)cc12)c1ccccc1 [AQM674]
Serum concentration ([1]; Patient 1): 20.6 ng/mL | Tumor concentration ([1]; Patient 1): 196.7 ng/mL | Serum concentration ([1]; Patient 2): 22.8 ng/mL | Tumor concentration ([1]; Patient 2): 411.2 ng/mL | Serum concentration ([1]; Patient 3): 31.3 ng/mL | Tumor concentration ([1]; Patient 3): 299.5 ng/mL | Serum concentration ([1]; Patient 4): 22.8 ng/mL | Tumor concentration ([1]; Patient 4): 93.9 ng/mL | exposure on day 15 relative to day 1 [2]: ~3 fold | time of maximum serum concentration after administration, on average [2]: 4.6 h | fold range in exposure over an 11-fold range in doses (50–550 mg) ([3]; Group A): 20 fold | effect of EIACD on overall exposure / concentrations ([3]; Group B (EIACD) vs Group A): reduced | accumulation after daily (q 24 h) administration versus a single dose ([3]; human, in vivo): 2-8 times | PK steady state reached ([3]; once-daily dosing): ≤ 15 days

CCN1CCN(Cc2ccc(-c3cc4c(N[C@H](C)c5ccccc5)ncnc4[nH]3)cc2)CC1 [AEE788]
Kp ([1]; human, glioblastoma tumor / plasma, oral, 250 mg): 14 to 59 | concentration at 12 h ([1]; human, oral, 250 mg, Patient 1): 57.3 ng/mL | concentration at 12 h ([1]; human, oral, 250 mg, Patient 2): 41.9 ng/mL | concentration at 12 h ([1]; human, oral, 250 mg, Patient 3): 141 ng/mL | concentration at 12 h ([1]; human, oral, 250 mg, Patient 4): 110 ng/mL | deaths within 28 days of last dose of AEE788 ([4]; Group A): 4 deaths | Treatment discontinuation due to death ([4]; Group A, of 26 patients): 2 (7.7) n (%) | Treatment discontinuation due to death ([4]; Group B, of 14 patients): 0 (0) n (%) | deaths during AEE788 therapy ([4]; all disease progression): Three | hepatotoxicity (at least grade 2 AST or ALT elevations), patients ([4]; human, in vivo): 27% | patients who discontinued because of SAEs ([4]; human, in vivo): 17% | patients who discontinued treatment because of AEs ([4]; human, in vivo): 28% | patients with grade 3/4 AST or ALT elevations ([4]; human, in vivo): 22% | patients reporting at least one AE ([4]; in vivo): All patients | relationship between higher AEE788 dose levels and AST or ALT abnormalities ([4]; in vivo): No relationship | overall best response: SD for > 3 cycles, patients (recurrent glioblastoma [5]; 6 of 36 patients): 17% | Treatment discontinuation due to progressive disease (recurrent glioblastoma [5]; Group A, of 26 patients): 18 (69.2) n (%) | Treatment discontinuation due to progressive disease (recurrent glioblastoma [5]; Group B, of 14 patients): 11 (78.6) n (%) | complete or partial response (recurrent glioblastoma [5]; all patients): No CR or PR | Median PFS (recurrent glioblastoma [5]; Group A): 2.7 (90% CI: 1.9, 2.8) months | Median PFS (recurrent glioblastoma [5]; Group B): 1.6 (90% CI: 0.2, 2.6) months | disease progression causing treatment discontinuation, patients (recurrent glioblastoma [5]; dose-escalation EIACD group, all dose levels (11 patients)): 78.6% | disease progression causing treatment discontinuation, patients (recurrent glioblastoma [5]; dose-escalation non-EIACD group, all dose levels (18 patients)): 69.2% | disease progression causing treatment discontinuation, patients (recurrent glioblastoma [5]; dose-expansion Arm 1, all dose levels (5 patients)): 71.4% | disease progression causing treatment discontinuation, patients (recurrent glioblastoma [5]; dose-expansion Arm 2, all dose levels (10 patients)): 58.8% | change in FLT-PET parameters (recurrent glioblastoma [6]; FLT-PET in 6 patients (250, 400, 600 mg)): one patient experienced a significant decrease in PET parameters | pharmacodynamic effects based on FLT-PET and/or MRI analyses (recurrent glioblastoma [6]; any dose level): no significant pharmacodynamic effects | PK steady state reached [2]: ≤ 15 days | accumulation after daily (q 24 h) administration versus a single dose [2]: 2-8 times | effect of EIACD on overall exposure / concentrations [2]: reduced | exposure of Group B patients at 600 mg relative to Group A patients at 550 mg [2]: half | fold range in exposure over an 11-fold range in doses (50–550 mg) [2]: 52 fold | mean coefficient of variation in AUC0–24 [2]: 67% | range of coefficient of variation in AUC0–24 [2]: 47-102% | exposure on day 15 relative to day 1 ([2]; 15 day): approximately 4.5 fold | Tmax ([3]; human, serum, oral): 5 h | half-life ([3]; human, serum, oral): > 24 h | AUC(0-t) ([3]; human, serum, oral, 50 mg/day): 82 ng·h/mL | Cmax ([3]; human, serum, oral, 50 mg/day): 7.7 ng/mL | Tmax ([3]; human, serum, oral, 50 mg/day): 3 h | AUC(0-t) ([3]; human, serum, oral, 100 mg/day): 168 ng·h/mL | Cmax ([3]; human, serum, oral, 100 mg/day): 12.7 ng/mL | Tmax ([3]; human, serum, oral, 100 mg/day): 4.3 h | AUC(0-t) ([3]; human, serum, oral, 200 mg/day): 189 ng·h/mL | Cmax ([3]; human, serum, oral, 200 mg/day): 8.2 ng/mL | Tmax ([3]; human, serum, oral, 200 mg/day): 9 h | AUC(0-t) ([3]; human, serum, oral, 250 mg/day): 1440 ng·h/mL | Cmax ([3]; human, serum, oral, 250 mg/day): 74.5 ng/mL | Tmax ([3]; human, serum, oral, 250 mg/day): 5.9 h | AUC(0-t) ([3]; human, serum, oral, 300 mg/day): 628 ng·h/mL | Cmax ([3]; human, serum, oral, 300 mg/day): 55.2 ng/mL | Tmax ([3]; human, serum, oral, 300 mg/day): 4.9 h | AUC(0-t) ([3]; human, serum, oral, 400 mg/day): 1150 ng·h/mL | Cmax ([3]; human, serum, oral, 400 mg/day): 77.1 ng/mL | Tmax ([3]; human, serum, oral, 400 mg/day): 6.7 h | AUC(0-t) ([3]; human, serum, oral, 450 mg/day): 3000 ng·h/mL | Cmax ([3]; human, serum, oral, 450 mg/day): 148 ng/mL | Tmax ([3]; human, serum, oral, 450 mg/day): 11 h | AUC(0-t) ([3]; human, serum, oral, 550 mg/day): 4300 ng·h/mL | Cmax ([3]; human, serum, oral, 550 mg/day): 234 ng/mL | Tmax ([3]; human, serum, oral, 550 mg/day): 12.5 h | AUC(0-t) ([3]; human, serum, oral, 600 mg/day): 730 ng·h/mL | Cmax ([3]; human, serum, oral, 600 mg/day): 71.8 ng/mL | Tmax ([3]; human, serum, oral, 600 mg/day): 3.7 h | AUC(0-t) ([3]; human, serum, oral, 800 mg/day): 1460 ng·h/mL | Cmax ([3]; human, serum, oral, 800 mg/day): 95.2 ng/mL | Tmax ([3]; human, serum, oral, 800 mg/day): 3 h

CO[C@H]1C[C@@H]2CC[C@@H](C)[C@@](O)(O2)C(=O)C(=O)N2CCCC[C@H]2C(=O)O[C@H]([C@H](C)C[C@@H]2CC[C@@H](OC(=O)C(C)(CO)CO)[C@H](OC)C2)CC(=O)[C@H](C)/C=C(\C)[C@@H](O)[C@@H](OC)C(=O)[C@H](C)C[C@H](C)/C=C/C=C/C=C/1C [temsirolimus]
grade 3 thrombocytopenia, patients [7]: 47%

C#Cc1cccc(Nc2ncnc3cc(OCCOC)c(OCCOC)cc23)c1 [erlotinib]
6-month PFS (recurrent glioblastoma [8]): 12.5% | PR (recurrent glioblastoma [8]): none
